Data published in patent US12005126B2, “Compositions for oral administration of pentosan polysulfate in form of nanoparticles with improved intestinal absorption” (NEXTRARESEARCH S.R.L., priority 2018, dated 2024).

Experiment: In-vivo pharmacokinetics study in rats after oral administration
Details: 1 mL, PPS conc. 4.64 mg/mL
Experimental: The bioavailability of PPS from the formulations of this invention can be evaluated in rats upon oral administration by gavage of the powder dispersion in comparison to the solution of non-formulated PPS
Plasma concentration versus time curve were evaluated in an in-vivo pharmacokinetics study carried out in rats after oral administration of 1 mL of a PPS aqueous solution having a concentration 4.64 mg/mL (Form I) or 1 mL of the PPS/chitosan nanosuspension (PPS conc. 4.64 mg/mL). In the nanosuspension the ratio between the volume of solution of PPS (6.5 mg/mL) and of solution of chitosan (6.5 mg/mL) used for the production of the nanoparticles was 5:2 (v/v).

In the case of “Pentosan Polysulfate sodium [PPS solution]”, the “Area under the curve” value is reported as 1306 µg·min/mL and the tmax is reported as 1 h.
